We go through two compounds from article PMC10892984, “Novel Antineoplastic Inducers of Mitochondrial Apoptosis in Human Cancer Cells” (Molecules, 2024).

One data set deals with CCRF−CEM cells. In words: Cytotoxicity (CellTiter 96 AQueous One, MTS). In kind it is cell-based, human. To be noted: Homo sapiens, 1.0 µM, read-out: CCRF–CEM growth inhibition at fixed 1.0 µM concentration. The method, then:
(§1) The cytotoxicity and human immunodeficiency virus type 1 (HIV-1) strain LAI replication assays were performed in freshly explanted primary human peripheral blood mononuclear cells (PBM cells) according to published procedures. The assays were conducted at least in triplicate and treated statistically (if possible). HIV-1LAI (= HIV-1BRU = LAV-1) was assayed in primary human peripheral blood lymphocyte (PBL) cells in the presence of a drug being evaluated. The parameter for antiviral activity was a reduction in reverse transcriptase (RT) activity in the cell supernatant after Triton X–100-mediated lysis of released virions, as measured using [5α-^3H]dTTP (5α-tritiated thymidine 5′-triphosphate) incorporation into poly(rA)•poly(dT) directed by the primed RNA template poly(rA)•oligo(dT). […] The detailed assay methodology was reported by Schinazi et al. as based on an older assay system of Spira et al.. The experiments were conducted in triplicate and treated statistically using regression curve analysis (r^2 coefficient of determination). The RT inhibitor AZT (zidovudine, 3′-azido-3′-deoxythymidine; RETROVIR™) served as a positive control. Cytotoxicity on PBL and the other cells (CCRF−CEM, Vero) exerted by the test compounds was determined as described by Stuyver et al. by application of the CellTiter 96® AQueous One Solution Cell Proliferation Assay (Promega Corp., Madison, WI, USA). Briefly, the phenazine ethosulfate (PES)-coupled reduction of the tetrazolium salt 3-(4,5-dimethylthiazol-2-yl)-5-(3-carboxymethoxyphenyl)-2-(4-sulfophenyl)-2H-tetrazolium (MTS) to a purple, water-soluble formazan by living, undamaged cells was measured.

Data set [1] in a line: Cytotoxicity (CellTiter 96 AQueous One, MTS). In kind it is cell-based, human. To be noted: human; CCRF−CEM cells. The method, then:
as §1

Data set [2] can be described thus: Storage stability of the solid substance (1H-NMR after storage). The conditions noted are these: over six years at +0–4 °C in the refrigerator. It is filed as physicochemical. As to the method:
The specimen of compound 3, which was synthesized on Saturday, 27 May 2017, was investigated using proton NMR (Figure 13) on Wednesday, 23 August 2023, after over six years of storage at +0–4 °C in the refrigerator. The specimen was newly dried over CaCl2 in vacuo for 19 h. […]

For `c1cc(CNC23CC4CC(CC(C4)C2)C3)cc(C[N+](Cc2cccc(CNC34CC5CC(CC(C5)C3)C4)c2)(Cc2cccc(CNC34CC5CC(CC(C5)C3)C4)c2)Cc2cccc(CNC34CC5CC(CC(C5)C3)C4)c2)c1` (stereo not drawn) [Compound 1, tetrakis{3-[(tricyclo[3.3.1.1^3,7]decan-1-ammonio)methyl]benzyl}ammonium pentachloride], in the data set with CCRF−CEM cells, the inhibition at 1 µM came to 60%. For the same compound, the CC50 in data set [1] was < 1000 nM. As for `COc1cc2c(c(OC)c1OC)-c1ccc(NNC(=S)N(Cc3cccc(C[N+](Cc4cccc(CNC56CC7CC(CC(C7)C5)C6)c4)(Cc4cccc(CNC56CC7CC(CC(C7)C5)C6)c4)Cc4cccc(CN(C(=S)NNc5ccc6c(cc5=O)C(NC(C)=O)CCc5cc(OC)c(OC)c(OC)c5-6)C56CC7CC(CC(C7)C5)C6)c4)c3)C34CC5CC(CC(C5)C3)C4)c(=O)cc1C(NC(C)=O)CC2` [Compound 3, [(bis{3-[(tricyclo[3.3.1.1^3,7]decan-1-ylamino)methyl]benzyl}ammonio)bis(methanediylbenzene-3,1-diylmethanediyl)]di-2-[(aS,7S)-7-(acetylamino)-1,2,3-trimethoxy-9-oxo-5,6,7,9-tetrahydrobenzo[a]heptalen-10-yl]-N-(tricyclo[3.3.1.1^3,7]decan-1-yl)hydrazinecarbothioamide chloride pentahydrate], the “stability on storage (1H-NMR)” value in data set [2] was “very pure even after six years storage”.

In general, CC50 refers to the concentration giving 50% cytotoxicity. The low end stands for greater toxicity to the cells, the high end for lower toxicity to the cells.
